Reference: ChEMBL document CHEMBL4393717, “Development of novel human lactate dehydrogenase A inhibitors: High-throughput screening, synthesis, and biological evaluations” (Eur J Med Chem, 2019)
Calls of active or inactive are those of the source. No cut-off for these calls is given here.

Tests used:
[1] = molecular target: T1, L-lactate dehydrogenase A chain (Homo sapiens, UniProt P00338); assay: Inhibition of recombinant human full-length N-terminal His-tagged LDHA (1 to 332 residues) expressed in Escherichia coli using sodium pyruvate as substrate incubated for 10 mins
[2] = test system: A549; assay: Antiproliferative activity against human A549 cells assessed as reduction in cell viability at incubated for 72 hrs by MTT assay; format: functional, cell-based; conditions: A549, 72 h
[3] = test system: MCF7; assay: Antiproliferative activity against human MCF7 cells assessed as reduction in cell viability at 50 uM incubated for 72 hrs by MTT assay relative to control; format: functional; conditions: for inhibition at 50 µM: MCF7, 72 h
[4] = test system: MIA PaCa-2; assay: Antiproliferative activity against human MIAPaCa2 cells assessed as reduction in cell viability at 50 uM incubated for 72 hrs by MTT assay relative to control; format: functional; conditions: for inhibition at 50 µM: MIA PaCa-2, 72 h
[5] = molecular target: T1, L-lactate dehydrogenase A chain; assay: Inhibition of recombinant human full-length N-terminal His-tagged LDHA (1 to 332 residues) expressed in Escherichia coli at 10 uM using sodium pyruvate as substrate incubated for 10 mins relative to control
[6] = test system: MIA PaCa-2; assay: Antiproliferative activity against human MIAPaCa2 cells assessed as reduction in cell viability incubated for 72 hrs by MTT assay; format: functional, cell-based; conditions: MIA PaCa-2, 72 h
[7] = test system: A549; assay: Antiproliferative activity against human A549 cells assessed as reduction in cell viability at 50 uM incubated for 72 hrs by MTT assay relative to control; format: functional; conditions: for inhibition at 50 µM: A549, 72 h
[8] = test system: MIA PaCa-2; assay: Induction of apoptosis in human MIAPaCa2 cells assessed as late apoptotic cells at 5 uM incubated for 12 hrs by annexin V and propidium iodide staining based flow cytometry analysis (reference value: 3.21 %); format: functional
[9] = test system: MIA PaCa-2; assay: Induction of apoptosis in human MIAPaCa2 cells assessed as necrotic cells at 5 uM incubated for 12 hrs by annexin V and propidium iodide staining based flow cytometry analysis (reference value: 1.54 %); format: functional
[10] = test system: MIA PaCa-2; assay: Inhibition of colony formation in human MIAPaCa2 cells at 0.5 uM treated for 3 days and supplemented with fresh medium with out compound every 3 days measured after 15 days by crystal violet staining based assay; format: functional, cell-based
[11] = test system: MIA PaCa-2; assay: Cell cycle arrest in human MIAPaCa2 cells assessed as accumulation at S phase at 5 uM incubated for 24 hrs by propidium iodide staining based flow cytometry (reference value: 12.99%); format: functional
[12] = test system: MIA PaCa-2; assay: Cell cycle arrest in human MIAPaCa2 cells assessed as accumulation at G2 phase at 5 uM incubated for 24 hrs by propidium iodide staining based flow cytometry (reference value: 31.00%); format: functional
[13] = test system: MIA PaCa-2; assay: Cell cycle arrest in human MIAPaCa2 cells assessed as accumulation at G1 phase at 5 uM incubated for 24 hrs by propidium iodide staining based flow cytometry (reference value: 56.01%); format: functional
[14] = test system: MIA PaCa-2; assay: Induction of apoptosis in human MIAPaCa2 cells assessed as viable cells at 5 uM incubated for 12 hrs by annexin V and propidium iodide staining based flow cytometry analysis (reference value: 94.85 %); format: functional; conditions: MIA PaCa-2, 12 h, read-out: Activity
[15] = test system: MIA PaCa-2; assay: Induction of apoptosis in human MIAPaCa2 cells assessed as early apoptotic cells at 5 uM incubated for 12 hrs by annexin V and propidium iodide staining based flow cytometry analysis (reference value: 0.40 %); format: functional

Compound	EC50 [1] [µM]	IC50 [2] [µM]	inhibition at 50 µM [3] [%]	inhibition at 50 µM [4] [%]	inhibition [5] [%]	IC50 [6] [µM]	inhibition at 50 µM [7] [%]	also measured
COc1cccc(N2CCN(C3CCN(C(=O)c4cnn5c4OCCC5)CC3)CC2)c1	3.4	> 50	17.9	12.4	> 90	> 50	25.8	
COc1cccc2c1C(=O)c1c(O)c3c(c(O)c1C2=O)C[C@@](O)(C(=O)CO)C[C@@H]3O[C@H]1C[C@H](N)[C@H](O)[C@H](C)O1 [DOXORUBICIN]								Activity [8]: 15.66%; Activity [9]: 7.4%; inhibition [10]: Active; Activity [11]: 5.54%; Activity [12]: 54.37%; Activity [13]: 40.09%; viability at 5 µM [14]: 74.7%; Activity [15]: 2.26%
O=C(NCC(=O)N1CCCC(Cc2nc(C3CC3)no2)C1)c1ccccc1 (stereo not given)	3.3	> 50	17.9	12.5	> 90	> 50	25.8	
O=C(c1ccco1)N1CCN(Cc2cc(=O)c(OCc3cccc(F)c3)co2)CC1	3.7	18.9				24.5		
O=C(c1ccco1)N1CCN(Cc2cc(=O)c(OCc3c(F)cccc3Cl)co2)CC1	5.6	> 50				> 50		
Cc1ccccc1OCC(=O)NCc1nn(C2CCCC2)c2c1COCC2	5.7	> 50			> 90	> 50		inhibition [3]: inactive; inhibition [4]: inactive; inhibition [7]: inactive
CC(=O)c1ccc(NC(=O)COc2cc(C)nc(C3CCC(C)CC3)n2)cc1 (stereo not given)	1.2	22.7	85.7	75.6	> 90	29.8	45.8	
N#Cc1cccnc1N1CCC(CNC(=O)C(=O)Nc2cccc(C(F)(F)F)c2)CC1	1.8	> 50	38.7	56.8	> 90	> 50	45.7	
NC(=O)C(=O)O [SODIUM OXAMATE]		45800				18900		
O=C(CC1CSc2nc3c(cnn3-c3ccccc3)c(=O)n21)NCCCn1ccnc1 (stereo not given)	7.8	> 50	14.7	15.8	> 90	> 50	36.9	
O=C(c1ccco1)N1CCN(Cc2cc(=O)c(OCc3ccccc3Cl)co2)CC1	12.4	> 50				> 50		
Cc1cc(N2CCC(CNS(=O)(=O)c3cccc4cccnc34)CC2)ccn1	0.34	> 50		25.8	> 90	> 50	14.7	
Cc1ncn(CC(=O)N2CCC(Oc3cncc(N(C)C)n3)C2)c(=O)c1C (stereo not given)	2.9	> 50	50.1	25.8	> 90	> 50	47.8	
Cc1ncn(CC(=O)N2CC(Oc3cc(C)n(C4CC4)c(=O)c3)C2)c(=O)c1C	6.4	> 50	12.3		> 90	> 50	4.5	
O=C(CCC1CCCCC1)N1CCN(c2ncnc3c2nnn3Cc2ccccc2)CC1	2.14	> 50	22.3	21.4	> 90	> 50	45.6	
COc1cc(CNC(=O)c2c(OC)cc(=O)n3c2CCC3)cc(OC)c1OC	4.58	> 50			> 90	> 50		inhibition [3]: inactive; inhibition [4]: inactive; inhibition [7]: inactive
O=C1N[C@](c2ccc(N3CCOCC3)cc2)(c2ccsc2)CC(O)=C1Sc1ccccc1Cl		0.36				0.48		
COc1cccc2c1OC(C(=O)N1CCC(Cn3ccnc3C(C)C)CC1)C2 (stereo not given)	7.5	> 50			> 90	> 50		inhibition [3]: inactive; inhibition [4]: inactive; inhibition [7]: inactive
O=C(c1ccco1)N1CCN(Cc2cc(=O)c(OCc3cccc(Cl)c3)co2)CC1	0.27	5.7				3.8		
O=C(c1ccco1)N1CCN(Cc2cc(=O)c(OCc3ccccc3)co2)CC1	0.68	14.7	93.4	95.6	> 90	12.5	84.7	
O=C(c1ccco1)N1CCN(Cc2cc(=O)c(OCc3ccc(F)cc3)co2)CC1	9.7	> 50				> 50		
O=C(Cn1cnc2ccccc2c1=O)N1CCN(C(=O)c2cc3n(n2)CCCC3)CC1	0.89	> 50	25.7	58.7	> 90	> 50	45.6	
COc1ccccc1OCC(=O)NC1CCC(Oc2nc(C)cc(C)n2)CC1 (stereo not given)	4.1	> 50	9.7	25.7	> 90	> 50	5.9	
